What was measured:
[1] = system: cerebellar granule cells; experiment: DNA fragmentation after exposure to peroxynitrite; assay type: cell-based, rat; settings: peroxynitrite-treated cells
[2] = system: cerebellar granule cells; experiment: DNA fragmentation analysis after exposure to NO donors; assay type: cell-based, rat; settings: pre-treatment of NO-treated cells
[3] = system: cerebellar granule cells; experiment: MTT assay (mitochondrial activity) after exposure to GSNO; assay type: cell-based, rat; settings: Figure 3
[4] = acute toxicity (LD50); settings: rat, in vivo
[5] = system: cerebellar granule cells; experiment: NO donor-induced apoptosis, morphological studies; assay type: cell-based, rat; settings: 25 µmol/L; 24-hour exposure to GSNO or SNP (100-250 µmol/L)
[6] = system: neuronal membrane; settings: oxidative stress-induced alteration; unpublished data, contributed to Free Radic. Biol. Med.; cited from earlier work
[7] = system: cerebellar granule cells; experiment: cell viability by MTT assay after exposure to peroxynitrite; assay type: cell-based, rat; settings: concentration not given, Figure 6
[8] = system: cerebellar granule cells; experiment: cell membrane fluidity by ESR spin labeling after exposure to peroxynitrite; assay type: cell-based, rat; settings: Figure 8
[9] = system: cerebellar granule cells; experiment: peroxynitrite-induced cell death (trypan blue exclusion and MTT assay), Pharmacological Test 1; assay type: cell-based, rat; settings: 30-min exposure to 5-10 µmol/L peroxynitrite, assessed after 24-hr culture, Figure 5
[10] = system: cerebellar granule cells; experiment: cellular ATP content by HPLC after exposure to peroxynitrite; assay type: cell-based, rat; settings: pretreatment; exposure to peroxynitrite for 30 min, Figure 9
[11] = unpublished data, contributed to Free Radic. Biol. Med.; cited from earlier work
[12] = system: cerebellar granule cells; experiment: lipid peroxidation (TBA assay) after exposure to peroxynitrite; assay type: cell-based, rat
[13] = system: cerebellar granule cells; experiment: lipid peroxidation (TBA assay) after exposure to NO donors; assay type: cell-based, rat; settings: 24-hr treatment with GSNO or SNP, Figure 4
[14] = system: cerebellar granule cells; experiment: peroxynitrite-induced apoptosis, morphological studies, Pharmacological Test 2; assay type: cell-based, rat; settings: for protection from apoptotic death: 100 µM, 30-min exposure to 10 µM peroxynitrite
[15] = solubility in water
[16] = system: cerebellar granule cells; experiment: cell viability by trypan blue exclusion after exposure to NO donors; assay type: cell-based, rat; settings: exposure to NO donors (100 µmol/L SNP or GSNO), Figure 2

Cc1c(C)c2c(c(C)c1OP(=O)(O)OC1=C(O)[C@@H]([C@@H](O)CO)OC1=O)CCC(C)(CCCC(C)CCCC(C)CCCC(C)C)O2.O=P(O)(O)O (mixture of isomers) [EPC-K1, L-ascorbic acid 2-[3,4-dihydro-2,5,7,8-tetramethyl-2-(4,8,12-trimethyltridecyl)-2H-1-benzopyran-6-yl-hydrogen phosphate] phosphate salt]
DNA fragmentation (ladder pattern) ([1]; 50 µM): effectively prevented DNA from fragmentation | DNA fragmentation (ladder pattern) [2]: prevented DNA from fragmentation | protection of ability of cells to reduce MTT (mitochondrial enzymes) ([3]; 8-hr exposure to 100 µmol/L GSNO): exhibited no dear protective effects | further dysfunction of mitochondrial enzymes (MTT) ([3]; after exposure to 100 µmol/L GSNO): prevented mitochondrial enzymes from falling into further dysfunction | LD50 ([4]; iv): > 100 mg/kg | LD50 ([4]; po): > 5000 mg/kg | protection from apoptotic cell death [5]: protected the cells from death | neuronal membrane fluidity [6]: protects neuronal membrane fluidity from oxidative stress-induced alteration | cell viability (MTT assay) [7]: effectively protected the cells from death | cell membrane fluidity (order parameter) ([8]; 50 µM): prevented the change in cell membrane fluidity | peroxynitrite induced cell death [9]: effectively prevented cell death | cellular ATP content [10]: suppressed the decrease of ATP | scavenging of peroxynitrite [11]: effective scavenger of peroxynitrite | formation of TBARS (lipid peroxidation) ([12]; 50 µM, Figure 7): markedly suppressed | lipid peroxidation (formation of TBARS) [13]: effectively inhibited lipid peroxidation | protection from apoptotic death [14]: protected from death | protective action against ONOO^--induced apoptosis (comparison) ([14]; overall comparison in Pharmacological Test 2): more effective than vitamin C or Trolox | solubility in water [15]: soluble in water | cell viability (trypan blue exclusion) [16]: effectively protected the cells from death

Cc1c(C)c2c(c(C)c1O)CCC(C)(C(=O)O)O2 (stereo not shown) [Trolox, 6-Hydroxy-2,5,7,8-tetramethylchroman-2-carboxylic acid]
DNA fragmentation (ladder pattern) ([1]; 100 µM): exhibited protective effects | cell membrane fluidity (order parameter) ([8]; 100 µM): did not show significant protective effect | cellular ATP content [10]: suppressed the decrease of ATP | formation of TBARS (lipid peroxidation) ([12]; 100 µM): markedly inhibited the formation of TBARS | protection from apoptotic death [14]: protected from death

O=C1O[C@H]([C@@H](O)CO)C(O)=C1O [vitamin C]
DNA fragmentation (ladder pattern) ([1]; 100 µM): exhibited protective effects | cellular ATP content [10]: suppressed the decrease of ATP | formation of TBARS (lipid peroxidation) ([12]; 100 µM): markedly inhibited the formation of TBARS | protection from apoptotic death [14]: protected from death

Reference: patent EP1053749A1, “PREVENTIVES AND REMEDIES FOR NEURON DIGENERATION-ASSOCIATED DISEASEAS” (priority 1998, dated 1999)
